# Like-named read-outs stand apart in the source and are kept apart here.
# Tests used:
# [1] = for % Control: Table IV; for Percent Control of Pitch: Table VI
# Protocol: The slurry contained 0.5% bleached hardwood Kraft fiber, approximately 2000 parts per million of the potassium salt of a fatty acid blend, approximately 200 parts per million calcium from calcium chloride and approximately 300 parts per million sodium carbonate. The slurry was maintained at 50 °C and at a pH of 11.
# It was stirred gently by an overhead stirrer and subjected to ultrasonic energy for 10 minutes. The deposit weight was determined by subtracting the starting weight of the pan from the weight of the pan plus the deposit after completion of the test. […] Studies of this type were conducted using hydrophobically modified associative polymers of the type described in this invention.
# [2] = Stickie coupon peel strength test modified to examine the effect of dilution; details: Concen. 50 ppm; for 1st Dilution: 30 minutes in distilled water after the initial immersion; for No Dilution: Table X
# Source text: In order to establish the efficacy of the materials used in the present invention as deposition control agents, on plastic surfaces and specifically for adhesive contaminants of the sort found in recycled fiber, a laboratory test was devised utilizing adhesive-backed tapes as stickie coupons. The stickie coupon can be fabricated from any type of adhesive tape that will not disintegrate when placed in water. For the study, tapes made from a styrenebutadiene rubber and vinylic esters were used. Both of these potential organic contaminants are known to cause problems "stickies" in secondary fiber utilization. A second coupon was fabricated from polyester film such as the product marketed as MYLAR by the DuPont Chemical Company. This material was chosen because papermachine forming fabrics are frequently made of polyester which is susceptible to considerable problem caused by stickies.
# 500 mL of solutions in 600 mL beakers containing various deposit control agents are placed in a water bath heated to 50 °C. The tape and the polyester film coupons are placed in the test solution so the adhesive side of the coupon faces away from the polyester film coupon. After 1 hour of immersion, the adhesive side of the stickie coupon is placed in contact with the polyester coupon and pressed to 1000 pound force.
# The average peel strength of the bond formed between the tape coupon and the polyester coupon was measured with an Instron tensile tester. The peel strength of the bond formed between the stickie tape coupon and the polyester coupon was interpreted as a measure of the tendency for an organic contaminant to attach to components of a paper-machine and cause runnability or product quality problems. More specifically, this indicates the tendency of a stickies deposit to form on a plastic surface.
# Papermaking consists of various processes which can be affected by sudden changes in pH, temperature, dilution (i.e., concentration), shear force, etc. Severe changes in these parameters can cause system shock which adversely impact paper production. Deposit control agents that can strongly adsorb onto the organic contaminant surface and resist the desorbing effects of dilution are highly desirable. Not only will deposition control be improved, but also the required dosage will be reduced, while negative side effects, such as forming and wet-end interferences, will be reduced or eliminated. The procedure outlined in Table VIII was modified to examine the effect of dilution on deposition control. Dilution was accomplished by immersing the adhesive tape and MYLAR in distilled water for 30 minutes after the initial immersion. This can be repeated as many times as desired.
substance,measurement,setting,value
Nonyl Phenol Ethoxylate [Nonyl Phenol Ethoxylate (Surfonic N-95)],% Control,[1]; 10 ppm,9%
same,Percent Control of Pitch,[1]; 10 ppm,9%
same,% Control,[1]; 50 ppm,81%
same,Percent Control of Pitch,[1]; 50 ppm,81%
nonylphenol ethoxylate [Sample 2],2nd Dilution,[2],2
same,3rd Dilution,[2],0
same,4th Dilution,[2],0
same,1st Dilution,[2],8
same,No Dilution,[2],100
dodecylphenoxypoly(ethyleneoxy) ethanol [Sample 3],2nd Dilution,[2],16
same,3rd Dilution,[2],5
same,4th Dilution,[2],0
same,1st Dilution,[2],34
same,No Dilution,[2],100
octylphenoxy poly(ethyleneoxy)ethanol [Sample 1],2nd Dilution,[2],0
same,3rd Dilution,[2],0
same,4th Dilution,[2],0
same,1st Dilution,[2],5
same,No Dilution,[2],100
